Key:
mouse TRPV3 = target: T1, mouse TRPV3 (Mus musculus, UniProt Q8K424); test: Voltage-step whole-cell recording of TRPV3 currents (40 μM 2-APB) in HEK 293T cells; format: cell-based; parameters: expressed in transfected cells; host or cells: HEK 293T; conditions: steps –160 to +180 mV, dyclonine 10, 30 μM, RR 10 μM
T1 sequence (Q8K424 1-791): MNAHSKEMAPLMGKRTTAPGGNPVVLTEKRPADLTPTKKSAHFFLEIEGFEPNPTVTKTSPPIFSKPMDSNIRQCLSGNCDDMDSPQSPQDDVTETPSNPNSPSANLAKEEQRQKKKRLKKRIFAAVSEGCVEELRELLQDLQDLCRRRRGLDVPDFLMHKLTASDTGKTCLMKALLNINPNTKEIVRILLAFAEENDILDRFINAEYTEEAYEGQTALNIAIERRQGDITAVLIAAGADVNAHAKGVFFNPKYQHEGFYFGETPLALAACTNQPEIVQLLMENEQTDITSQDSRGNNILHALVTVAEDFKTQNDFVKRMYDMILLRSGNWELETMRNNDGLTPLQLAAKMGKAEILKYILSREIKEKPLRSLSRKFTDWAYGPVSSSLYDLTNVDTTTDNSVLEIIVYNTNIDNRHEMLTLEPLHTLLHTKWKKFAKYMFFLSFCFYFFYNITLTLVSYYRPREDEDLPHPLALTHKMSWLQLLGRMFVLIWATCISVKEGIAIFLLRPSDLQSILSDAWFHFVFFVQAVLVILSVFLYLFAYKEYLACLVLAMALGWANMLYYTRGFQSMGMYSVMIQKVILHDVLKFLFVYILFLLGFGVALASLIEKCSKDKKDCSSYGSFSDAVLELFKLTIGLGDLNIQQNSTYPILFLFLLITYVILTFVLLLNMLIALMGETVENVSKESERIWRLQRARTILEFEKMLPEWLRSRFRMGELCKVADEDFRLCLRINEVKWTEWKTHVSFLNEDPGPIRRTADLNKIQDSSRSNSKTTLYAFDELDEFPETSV
Description: Conventional whole-cell and excised patch-clamp recording methods were used. For the recombinant expressing system, green fluorescent EGFP was used as a surface marker for gene expression. Recording pipettes were pulled from borosilicate glass capillaries (World Precision Instruments) and fire-polished to a resistance between 2 and 4 MΩ when filled with internal solution containing (in mM) 140 CsCl, 2.0 MgCl2, 5 EGTA, and 10 HEPES, pH 7.4 (adjusted with CsOH). Bath solution contained (in mM): 140 NaCl, 5 KCl, 3 EGTA, and 10 HEPES, pH 7.4 adjusted with NaOH. For recordings in keratinocytes, the bath saline consisted of (in mM) 140 NaCl, 5 KCl, 2 MgCl2, 2 CaCl2, 10 glucoses, and 10 HEPES, pH 7.4 adjusted with NaOH, and the pipette solution contained (in mM) 140 CsCl, 5 EGTA, and 10 HEPES, pH 7.3 adjusted with CsOH. […] For a subset of recordings, currents were amplified using an Axopatch 200B amplifier (Molecular Devices, Sunnyvale, CA) and recorded through a BNC-2090/MIO acquisition system (National Instruments, Austin, TX) using QStudio developed by Dr. Feng Qin at State University of New York at Buffalo. […] As determined by the conductance tests, the solution around a patch under study was fully controlled by the application of a flow rate of 100 μl/min or greater. […]

C57B/6 mice = test: Carvacrol-induced itch-scratching behavior in mice; format: in vivo, mouse
Method: To assess itch-scratching behaviors, the hair of the rostral part of the mouse’s right neck was shaved using an electric hair clipper 24 hr before the start of experiments. Trpv3^-/- mice have been described previously ([Wang et al., 2021]). Scratching behaviors were recorded on video. The number of itch-scratching bouts was counted through video playback analysis. One scratching bout was defined as an episode in which a mouse lifted its right hind limb to the injection site and scratched continuously for any time length until this limb was returned to the floor or mouth ([Wilson et al., 2013]). All behavioral experiments were conducted in a double-blind manner. […] [Sun and Dong, 2016]).

Compound | effect on TRPV3-mediated inward and outward currents (voltage dependence) (mouse TRPV3) | change in the number of scratching bouts (C57B/6 mice; TRPV3-/- mice, intradermal carvacrol 0.1%, 50 μl) | accumulated scratching bouts over 30 min (C57B/6 mice; WT TRPV3 mice, intradermal carvacrol 0.1%, 50 μl) | scratching bouts over 30 min (C57B/6 mice; carvacrol (0.1%, 50 μl) with pretreatment of normal saline)
N.N.N.N.N.N.N.N.N.N.N.N.N.N.[Cl-].[Cl-].[Cl-].[Cl-].[Cl-].[Cl-].[O-2].[O-2].[Ru+3].[Ru+3].[Ru+4] [RR, ruthenium red] | only inhibited TRPV3-mediated inward currents but enhanced outward currents | – | – | –
Cc1ccc(C(C)C)cc1O [carvacrol] | – | did not elicit a remarkable change | 137.2 ± 33.9 | 137.8 ± 18.3
